{
  "source": "patent EP4670722A1",
  "about": "“PROPHYLACTIC OR AMELIORATING AGENT FOR CELL AGING” (Kyowa Pharma Chemical Co., Ltd., priority 2023, dated 2024)",
  "key": {"GLS1 [1]": {"test_system": "GLS1", "experiment": "GLS1 expression analysis (Western blot) in dermal fibroblasts cultured with medium of hydrogen peroxide-treated cells", "assay_type": "cell-based, Human", "settings": "dermal fibroblasts NB1RGB, 50 µg/mL to 200 µg/mL, 24 hours, protein level vs β-actin; effect increased as content increased; Fig. 4", "experimental": "Human normal dermal fibroblasts (NB1RGB, PDL of 30 or less) were cultured using DMEM containing 10% FBS. The cultured cells were collected by trypsin treatment. The collected cell-containing liquid was diluted with DMEM containing 10% FBS to a cell concentration of 5.0 x 10^5 cells, seeded in a 10 cm dish, and cultured until 60% confluent. Thereafter, the cultured cells were subjected to a treatment of exposure to a medium containing 50 µM hydrogen peroxide (FBS-free) for 2 hours once a day for 3 days. Then, the medium was replaced with DMEM containing 5% FBS, and after 2 days, the medium (medium A) was collected. Dermal fibroblasts not exposed to hydrogen peroxide were diluted with DMEM containing 10% FBS to a concentration of 5.0 x 10^5 cells, seeded in a 10 cm dish, and cultured for 24 hours. […]\nThe dermal fibroblasts prepared in [Example 3-1] were diluted with DMEM medium containing 10% FBS to a concentration of 8.0 x 10^4 cells, seeded in a 6-well plate, and cultured until 80% confluent. […] The extracted proteins were quantified by the Bradford assay.\nExcept that no test sample was added, skin fibroblasts prepared in [Example 3-1] and skin fibroblasts cultured using DMEM containing 10% FBS were cultured in the same manner as in [Example 3-2], and proteins were extracted. The extracted proteins were quantified by the Bradford assay. […]"}, "GLS1 [2]": {"test_system": "GLS1", "experiment": "GLS1 expression analysis (Western blot) in HEK293", "assay_type": "cell-based", "settings": "human embryonic kidney cells (HEK293), at least 200 µg/mL or more, 24 hours; effect increased from 200 to 1000 µg/mL; Fig. 12", "experimental": "Human embryonic kidney cells (HEK293) were cultured in DMEM containing 10% FBS. The cultured cells were collected by trypsin treatment. The collected cells were seeded in a 6-well plate, and when they reached 100% confluence, DMEM containing 2'-FL as a test sample at 50 µg/mL, 200 µg/mL, or 1000 µg/mL, and lactose at 50 µg/mL or 200 µg/mL was added, and cultured for 24 hours in a 37°C, 5% CO2 incubator. The culture supernatant was removed, the cells were washed twice with phosphate-buffered saline (PBS), and 0.20 mL of RIPA buffer (manufactured by Nacalai Tesque, Inc.) was added to extract total protein. Protein in each protein extract was quantified by the Bradford assay.\nProtein extracts were collected in the same manner as in [Example 10-1 A. Human embryonic kidney cells (HEK293)], except that DMEM not containing the test sample was used instead of DMEM containing the test sample, and protein in each protein extract was quantified by the Bradford assay.\nWestern blot analysis was performed on each protein extract using an anti-GLS1 antibody and an anti-β-actin antibody. […] The intensity of color development was quantified using the open-source software 'ImageJ'. The relative value of the GLS1 amount relative to the β-actin amount when each test sample was added was calculated, with the GLS1 amount relative to the β-actin amount in the control set to 1. […]"}, "GLS1 [3]": {"test_system": "GLS1", "experiment": "GLS1 expression analysis (ELISA) in KKLS", "assay_type": "cell-based", "settings": "human gastric undifferentiated carcinoma cells (KKLS), at least 200 µg/mL or more, 24 hours; effect increased from 200 to 1000 µg/mL; Fig. 12", "experimental": "Human gastric undifferentiated carcinoma cells (KKLS) were cultured in RPMI 1640 (manufactured by Nissui Pharmaceutical Co., Ltd.) containing 10% FBS. The cultured cells were collected by trypsin treatment. The collected cells were seeded in a 6-well plate, and when they reached 100% confluence, RPMI 1640 containing the test sample (2'-FL and lactose) at 50 µg/mL, 200 µg/mL, or 1000 µg/mL was added, and cultured for 24 hours in a 37°C, 5% CO2 incubator. The culture supernatant was removed, the cells were washed twice with PBS, and 0.20 mL of RIPA buffer was added to extract total protein. Protein in each protein extract was quantified by the Bradford assay.\nProtein extracts were collected in the same manner as in [Example 10-1 B. Human gastric undifferentiated carcinoma cells (KKLS)], [Example 10-1 C. Mouse microglial cells (BV2)], [Example 10-1 D. Human gingival fibroblasts (Gin-1)], and [Example 10-1 E. Human umbilical vein endothelial cells (HUVEC)], respectively, except that a medium same as the above-mentioned medium but not containing the test sample was used instead of the medium containing the test sample, and protein in each protein extract was quantified by the Bradford assay.\nAn ELISA method was performed using an antibody against GLS1 to measure the amount of GLS1 in the samples. […]"}},
  "data": [
    {"smiles": "C[C@@H]1O[C@@H](O[C@H]2[C@H](O[C@H]3[C@H](O)[C@@H](O)C(O)O[C@@H]3CO)O[C@H](CO)[C@H](O)[C@@H]2O)[C@@H](O)[C@H](O)[C@@H]1O", "note": "(stereo partly drawn) [2'-FL, 2'-fucosyllactose]", "values": [
      {"measurement": "expression of GLS1", "setting": "GLS1 [1]", "value": "suppressed the expression of GLS1"},
      {"measurement": "GLS1 expression", "setting": "GLS1 [2]", "value": "suppressed GLS1 expression"},
      {"measurement": "GLS1 expression", "setting": "GLS1 [3]", "value": "suppressed GLS1 expression"}
    ]}
  ]
}
